Measured values as given in patent US20240058308A1, “TREATMENT AND PREVENTION OF DRY MACULAR DEGENERATION” (The Regents of the University of Michigan, priority 2021, published 2024).
≈ marks a conversion by molar mass, not a printed value.

Columns and labels:
primary hfRPE culture = experiment: UAM-induced senescence (β-galactosidase activity); type: cell-based, human
Excerpt: FIG. 6. FLBZ alleviates UAM-induced senescence and tight-junction disruption. (A) (Top) FLBZ reduces senescence when fed concurrently with oxOS during UAM accumulation. (Bottom) FLBZ is unable to reverse established senescence induced by already accumulated UAM. FLBZ is fed daily together with oxOS for 20 days in a month (top) or after one month of 20 oxOS feedings to induce UAM buildup (bottom). DMSO as vehicle control. Senescence measured by β-galactosidase activity (blue). Scale bar: 50 μm. n=6. […] Left graph n=6, right graph n=12. ns p>0.05, *p<0.05, ***p<0.001.
UAM accumulation and quantification as well as assays on senescence were carried out [Ref. 51; incorporated by reference in its entirety]. UAM granule size was measured with Leica LAS X software using the length of the long axis of the granule ellipse.

primary RPE cultures = experiment: APOE secretion by western blotting of supernates; type: cell-based, human; settings: 24 hours
Protocol: After 24 hours of exposure to drugs, supernates were collected and subjected to western blotting for APOE detection and a fluorometric assay for β-HB detection [Ref 51; incorporated by reference in its entirety]. Twenty microliters of apical and basolateral supernates for APOE were mixed with SDS sample buffer and blotted with antibody at a dilution of 1:2000. APOE and β-HB values were normalized to the average value of the vehicle and experimental group within each experimental repeat.
The RPE handles an enormous lipid burden on a daily basis, including OS ingestion from its apical side and lipoprotein particle absorption from its basolateral side. Rather than storing excess lipid, the RPE may choose to degrade or secrete surplus lipids (FIG. 4a). A marker of lipid degradation is the production of KBs, which are secreted by the RPE apically and serve as an energy source for photoreceptors [Refs. 7,8; incorporated by reference in their entireties]. A marker of lipid secretion is the production of the lipoprotein APOE, which is a major component of drusen [Ref. 50; incorporated by reference in its entirety]. It was contemplated that autophagy inducers promote ketogenesis through degradation of ingested lipids, reducing the stimulus for secretion of drusen-promoting APOE.

[1] = Solubility assays of DMSO stock mixed with PBS (simulating the vitreous); type: physicochemical
Protocol: Experiments were conducted during development of embodiments herein to establish a positive control for autophagy induction. The direct mTOR inhibitor Torin1 was selected over rapamycin/sirolimus as the positive control, based on the capacity of Torin1 to induce autophagy in primary culture more strongly and more consistently than rapamycin. The experimental set-up involved injecting one eye with Torin and the other eye with the DMSO vehicle. Autophagy induction was measured at 4 different concentrations of Torin (500 nm, 5 um, 50 um, 500 um) and at 5 different timepoints after injection (1 day, 3 days, 7 days, 14 days, 28 days). […] Nevertheless, the ability of intravitreal injections of FLBZ to induce autophagy in the RPE was assessed. In preparation for injecting FLBZ intravitreally into mice, solubility assays were performed and the maximum amount of FLBZ that can be injected without it crashing out of solution in the vitreous was determined. […] This helped inform maximal concentrations of flubendazole that could be injected intravitreally. Four different concentrations were injected, up to the maximum solubility of FLBZ, and autophagy induction was assayed over a timeframe ranging from 1 week to 4 weeks after injection.

In the case of `COC(=O)Nc1nc2cc(C(=O)c3ccc(F)cc3)ccc2[nH]1` [FLBZ, Flubendazole], the “Senescence, drug after UAM had accumulated” value (primary hfRPE culture; drug fed after one month of 20 oxOS feedings) is reported as “cell senescence was not decreased”, the “Senescence, drug cofed with oxOS” value (primary hfRPE culture; fed daily together with oxOS for 20 days in a month, vs vehicle) is reported as “less senescence” and the “APOE secretion, apical and basolateral” value (primary RPE cultures) is reported as “reduced the apical and basolateral secretion of APOE”. The solubility ([1]; DMSO stock solution mixed with PBS (simulating the vitreous), aqueous with cosolvent or surfactant or cyclodextrin, kinetic from dmso stock, delivered in 1 ul of DMSO, read-out: Maximum soluble concentration for intravitreal injection) was 500 µM (≈ 157 µg/mL) and the “Precipitation of DMSO stock solution when mixed with PBS” value ([1]; Torin 1 mM stock mixed 1:1 with PBS, flubendazole 3 mM stock) was “crashed out when mixed with PBS unless at a dilution of 1:20 or more”.
